Experimental data from patent US12281125B2, “Rapamycin derivatives” (NOVARTIS AG, priority 2018, dated 2025).

Assays:
[1] = tested on: mTORC1 activity, S6K1 (Thr389) in FKBP12/12.6/25/52/51 knock-out 293T cells; test: S6K1(Thr389) phosphorylation ELISA in FKBP12/12.6/25/52/51 knock-out 293T cells; format: cell-based
Description: A CRISPR/Cas9 system was used to deliver ribonucleoprotein complexes containing guide RNA (gRNA) sequences that target FKBP12
([…], location 35620248) into 293T cells, using the Amaxa® 4D-Nucleofector™ X Kit (Lonza, V4XC-2032). Cell clones were screened by immunoblotting with anti-FKBP-specific antibodies: FKBP12 (Novus, NB300-508), FKBP12.6 (Abnova, H00002281-M01), FKBP13 (R&D Systems, MAB4356), FKBP25 (R&D Systems, MAB3955), FKBP52 (Cell signaling Technology, #11826) and FKBP51 (Cell signaling Technology, #12210). […] Quintuple FKBP12/12.6/13/52/51 knock-out and FKBP12/12.6/25/52/51 knock-out cells were generated by sequentially knocking out five FKBP genes.
WT, FKBP12 knock-out, FKBP12/12.6/13/52/51 knock-out or FKBP12/12.6/25/52/51 knock-out 293T cells were plated at a density of 30,000 cells per well in poly-D-Lysine coated 96-well plates (Corning, #354461) in Dulbecco's modified Eagle's medium (ThermoFisher, #11995-065) supplemented with 10% fetal bovine serum (ThermoFisher, #16140-071). Cells were incubated at 37° C., 5% CO2 for 48 hours until they reached ˜80% confluence. […] Media supplemented with blank Dimethyl sulfoxide (DMSO) was used as a control for both compounds. Phosphorylated amounts of S6K1 (Thr389) were detected by a sandwich ELISA kit (Cell signaling, #7063C) following the manufacture's protocol.

FKBP51 = target: T1, FKBP51 (Homo sapiens, UniProt Q13451); test: SPR assay, binding affinity to FKBP51; details: equilibrium dissociation constant
T1 construct: made in house; host or cells: E. coli
T1 sequence (Q13451 1-457): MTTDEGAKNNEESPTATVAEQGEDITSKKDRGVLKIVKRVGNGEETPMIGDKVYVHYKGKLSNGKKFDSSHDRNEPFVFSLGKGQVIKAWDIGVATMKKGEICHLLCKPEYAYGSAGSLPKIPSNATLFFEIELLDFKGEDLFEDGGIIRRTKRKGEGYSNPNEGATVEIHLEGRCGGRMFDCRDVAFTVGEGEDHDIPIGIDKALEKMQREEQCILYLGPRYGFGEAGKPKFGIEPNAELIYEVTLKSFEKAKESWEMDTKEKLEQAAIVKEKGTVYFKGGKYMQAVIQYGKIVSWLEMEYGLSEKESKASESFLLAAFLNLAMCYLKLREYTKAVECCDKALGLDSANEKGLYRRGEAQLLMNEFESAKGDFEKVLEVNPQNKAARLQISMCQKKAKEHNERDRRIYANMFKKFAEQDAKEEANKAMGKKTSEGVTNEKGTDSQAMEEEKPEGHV
Description: N-terminal avi-his6-tagged FKBP fusion proteins were expressed in E. coli and purified with nickel chromatography using standard procedures. Biotinylated his-avi-FKBPs were immobilized on a streptavidin chip using a Biacore 8K (GE Healthcare). […] The single-cycle kinetics data were fit to a 1:1 binding model to measure the association rate ka (1/Ms), the dissociation rate kd (1/s) and the affinity KD (M). […] The single-cycle kinetics data was fit to a 1:1 binding model to measure the association rate ka (1/Ms), the dissociation rate kd (1/s) and the apparent affinity KD (M) for ternary complex formation. The equilibrium dissociation constants (KD) to FKBP12, FKBP51, and FKBP52 are shown below in Table 6.

[2] = target: T2, FKBP12-rapalog-mTOR (amino acids 2019-2112) ternary complex (Homo sapiens, UniProt P42345+P62942); test: SPR ternary complex formation, rapalog bound to FKBP12 with mTOR; format: binding; details: rapalog bound to FKBP with mTOR, read-out: FKBP12 apparent affinity KD for ternary complex formation
T2 construct: his^6-mTOR (amino acids 2019-2112) was diluted in buffer; made in house; host or cells: E. coli
T2 sequence (P62942 whole entry, the tested form may be a part): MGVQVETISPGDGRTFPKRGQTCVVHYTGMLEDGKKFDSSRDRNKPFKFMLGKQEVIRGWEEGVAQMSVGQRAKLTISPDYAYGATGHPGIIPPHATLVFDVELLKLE
T2 sequence (P42345 2019-2112 limits assumed): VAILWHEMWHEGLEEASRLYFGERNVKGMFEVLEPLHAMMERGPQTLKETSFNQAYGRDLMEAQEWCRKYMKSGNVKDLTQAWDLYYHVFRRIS
Method: (§1) N-terminal avi-his6-tagged FKBP fusion proteins were expressed in E. coli and purified with nickel chromatography using standard procedures. Biotinylated his-avi-FKBPs were immobilized on a streptavidin chip using a Biacore 8K (GE Healthcare). To determine the kinetics-affinity of the rapalogs for FKBPs, rapalogs were diluted in DMSO to 50× working concentration. Next, 3.1 uLs of each rapalog solution was added to 150 uLs of buffer (50 mM Tris pH 7.5/150 mM NaCl/0.01% Tween 20/1 mM DTT) in a 384 deep well plate (greiner bio-one/78127) and mixed using a Biomek FX. The rapalog solution gradients (6 concentrations/2 fold dilutions, 3.1-100 nM or 31-1000 nM or 310-10000 nM) were then injected at 45 uL/min for 120 seconds: contact time and dissociation time was 1800 seconds in running buffer (50 mM Tris pH 7.5/150 mM NaCl/0.01% Tween 20/1 mM DTT/2% DMSO). The single-cycle kinetics data were fit to a 1:1 binding model to measure the association rate ka (1/Ms), the dissociation rate kd (1/s) and the affinity KD (M). […] 3.1 uLs of the 500 μM rapalog solutions were added to 150 uLs of the mTOR samples in a 384 deep well plate (greiner bio-one/78127) and mixed using a Biomek FX. The mTOR solution gradients were then injected at 45 uL/min for 120 seconds: contact time and dissociation time was 1800 seconds in running buffer (50 mM Tris pH 7.5/150 mM NaCl/0.01% Tween 20/1 mM DTT/2% DMSO). […]

[3] = target: T3, FKBP13-rapalog-mTOR (amino acids 2019-2112) ternary complex (Homo sapiens, UniProt P26885+P42345); test: SPR ternary complex formation, rapalog bound to FKBP13 with mTOR; format: binding; details: rapalog bound to FKBP with mTOR, read-out: FKBP13 apparent affinity KD for ternary complex formation
T3 construct: his^6-mTOR (amino acids 2019-2112) was diluted in buffer; made in house; host or cells: E. coli
T3 sequence (P26885 22-142): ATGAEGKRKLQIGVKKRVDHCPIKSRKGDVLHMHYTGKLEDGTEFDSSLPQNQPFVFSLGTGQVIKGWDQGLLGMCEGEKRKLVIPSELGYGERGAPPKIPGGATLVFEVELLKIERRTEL
T3 sequence (P42345 2019-2112 limits assumed): as the sequence (P42345 2019-2112 limits assumed) above
Method: as §1

Row | Kd (FKBP51) [µM] | Kd [2] [µM] | Kd [3] [µM] | Structure (SMILES) | inhibitory effect (potency) on S6K1 (Thr389), in words [1]
1 | 0.144 | 0.025 | 0.127 | CO[C@@H]1C[C@H](C[C@@H](C)[C@@H]2CC[C@H](C)/C=C(\C)[C@@H](O)[C@@H](OC)C(=O)[C@H](C)C[C@H](C)/C=C/C=C/C=C(\C)[C@@H](NS(C)(=O)=O)C[C@@H]3CC[C@@H](C)[C@@](O)(O3)C(=O)C(=O)N3CCCC[C@H]3C(=O)O2)CC[C@H]1O [Compound 2] | neither RAD001 nor Compound 2 were efficacious
2 | 0.811 | 0.021 | 0.021 | CO[C@H]1C[C@@H]2CC[C@@H](C)[C@@](O)(O2)C(=O)C(=O)N2CCCC[C@H]2C(=O)O[C@H]([C@H](C)C[C@@H]2CC[C@@H](OCCO)[C@H](OC)C2)CC(=O)[C@H](C)/C=C(\C)[C@@H](O)[C@@H](OC)C(=O)[C@H](C)C[C@H](C)/C=C/C=C/C=C/1C [RAD001, everolimus, reference compound] | neither RAD001 nor Compound 2 were efficacious
